Measurements reported in patent publication US7402548B2, “Benzoxazole compounds, process for producing the same and herbicides” (Kyoyu Agri Co., Ltd., priority 2000, dated 2008).

Assays:
barnyard grass [1] = test: Herbicidal test for paddy field; format: in vivo, Eschinochloa crusgalli; settings: 500 g/ha, dropwise addition to paddy water at 1.5 leaf stage of barnyard grass; glass house 25° C., 3 weeks; rank 0-5 vs non-treated district; also: key: 0: normal development; 1: Less damaged; 2: Slightly damaged; 3: Moderately damaged; 4: Severely damaged; 5: All killed
Procedure, shortened: (§1)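 Wettable-powder formulations in water with 0.05% surfactant were dripped onto flooded (3 cm) Ube alluvial-soil pots at 500 g/ha, applied at barnyard grass 1.5-leaf stage. Plants were kept in a glasshouse at 25° C. for 3 weeks. Damage was scored 0 (normal) to 5 (all killed) versus untreated plants.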

Cyperus serotinus Rottb. = test: Herbicidal test for paddy field; format: in vivo; settings: 500 g/ha, dropwise addition to paddy water at 1.5 leaf stage of barnyard grass; glass house 25° C., 3 weeks; rank 0-5 vs non-treated district; also: key: 0: normal development; 1: Less damaged; 2: Slightly damaged; 3: Moderately damaged; 4: Severely damaged; 5: All killed
Procedure, shortened: as §1

arrowhead = test: Herbicidal test for paddy field; format: in vivo, Sagittaria pygmaea; settings: 500 g/ha, dropwise addition to paddy water at 1.5 leaf stage of barnyard grass; glass house 25° C., 3 weeks; rank 0-5 vs non-treated district; also: key: 0: normal development; 1: Less damaged; 2: Slightly damaged; 3: Moderately damaged; 4: Severely damaged; 5: All killed
Procedure, shortened: as §1

corn = test: Soil treatment test for upland field; format: in vivo; design: key: 0 = normal development, 5 = all killed; settings: 500 g/ha, 3 weeks, glass house 25° C.
Procedure, shortened: (§2)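 Pre-emergence soil spray, 500 g/ha, WP formulation in water + 0.05% surfactant; alluvial soil; glasshouse, avg 25° C, 3 wk. Score 0 (normal) to 5 (all killed) vs untreated.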

solgum [2] = test: Soil treatment test for upland field; format: in vivo; design: key: 0 = normal development, 5 = all killed; settings: 500 g/ha, 3 weeks, glass house 25° C.
Procedure, shortened: as §2

sugar beat = test: Soil treatment test for upland field; format: in vivo; design: key: 0 = normal development, 5 = all killed; settings: 500 g/ha, 3 weeks, glass house 25° C.
Procedure, shortened: as §2

wheat = test: Soil treatment test for upland field; format: in vivo; design: key: 0 = normal development, 5 = all killed; settings: 500 g/ha, 3 weeks, glass house 25° C.
Procedure, shortened: as §2

[3] = system: common Cocklebur (Xanthium strumarium); test: Soil treatment test for upland field; format: in vivo; settings: 500 g/ha, 3 weeks, glass house 25° C. Also: key: 0: normal development; 1: Less damaged; 2: Slightly damaged; 3: Moderately damaged; 4: Severely damaged; 5: All killed.
Procedure, shortened: as §2

[4] = system: sicklepod (Cassia obtusifolia); test: Soil treatment test for upland field; format: in vivo; settings: 500 g/ha, 3 weeks, glass house 25° C.
Procedure, shortened: as §2

Large crabgrass [5] = test: Soil treatment test for upland field; format: in vivo, Digitaria adscendens; design: key: 0 = normal development, 5 = all killed; settings: 500 g/ha, 3 weeks, glass house 25° C.
Procedure, shortened: as §2

barnyard grass [6] = test: Soil treatment test for upland field; format: in vivo, Eschinochloa crusgalli; design: key: 0 = normal development, 5 = all killed; settings: 500 g/ha, 3 weeks, glass house 25° C.
Procedure, shortened: as §2

annual bluegrass [7] = test: Soil treatment test for upland field; format: in vivo, Poa annua; design: key: 0 = normal development, 5 = all killed; settings: 500 g/ha, 3 weeks, glass house 25° C.
Procedure, shortened: as §2

common lambsquarters [8] = test: Soil treatment test for upland field; format: in vivo, Chenopodium album; design: key: 0 = normal development, 5 = all killed; settings: 500 g/ha, 3 weeks, glass house 25° C.
Procedure, shortened: as §2

livid amaranth = test: Soil treatment test for upland field; format: in vivo, Amaranthus lividus; design: key: 0 = normal development, 5 = all killed; settings: 500 g/ha, 3 weeks, glass house 25° C.
Procedure, shortened: as §2

cotton = test: Foliar spread test for upland field; format: in vivo; design: key: 0 = normal development, 5 = all killed (6 ranks vs. untreated); settings: foliar spray, 500 ppm, 3 weeks, glass house 25° C.
Procedure, shortened: (§3)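 Scores on a 0–5 scale (0 normal development, 5 all killed), relative to untreated controls, were taken 3 weeks post-treatment in a 25 °C glass house. Treatment was a uniform foliar spray at 500 ppm (0.5% surfactant) onto roughly 2-week-old soil-grown plants.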

solgum [9] = test: Foliar spread test for upland field; format: in vivo; design: key: 0 = normal development, 5 = all killed (6 ranks vs. untreated); settings: foliar spray, 500 ppm, 3 weeks, glass house 25° C.
Procedure, shortened: as §3

soybean = test: Foliar spread test for upland field; format: in vivo; design: key: 0 = normal development, 5 = all killed (6 ranks vs. untreated); settings: foliar spray, 500 ppm, 3 weeks, glass house 25° C.
Procedure, shortened: as §3

Large crabgrass [10] = test: Foliar spread test for upland field; format: in vivo, Digitaria adscendens; design: key: 0 = normal development, 5 = all killed (6 ranks vs. untreated); settings: foliar spray, 500 ppm, 3 weeks, glass house 25° C.
Procedure, shortened: as §3

barnyardgrjass = test: Foliar spread test for upland field; format: in vivo, Eschinochloa crusgalli; design: key: 0 = normal development, 5 = all killed (6 ranks vs. untreated); settings: foliar spray, 500 ppm, 3 weeks, glass house 25° C.
Procedure, shortened: as §3

blackgrass = test: Foliar spread test for upland field; format: in vivo, Alopecurus aegualis; design: key: 0 = normal development, 5 = all killed (6 ranks vs. untreated); settings: foliar spray, 500 ppm, 3 weeks, glass house 25° C.
Procedure, shortened: as §3

annual bluegrass [11] = test: Foliar spread test for upland field; format: in vivo, Poa annua; design: key: 0 = normal development, 5 = all killed (6 ranks vs. untreated); settings: foliar spray, 500 ppm, 3 weeks, glass house 25° C.
Procedure, shortened: as §3

common lambsquarters [12] = test: Foliar spread test for upland field; format: in vivo, Chenopodium album; design: key: 0 = normal development, 5 = all killed (6 ranks vs. untreated); settings: foliar spray, 500 ppm, 3 weeks, glass house 25° C.
Procedure, shortened: as §3

velvetleaf = test: Foliar spread test for upland field; format: in vivo, Abutilon theophrasti; design: key: 0 = normal development, 5 = all killed (6 ranks vs. untreated); settings: foliar spray, 500 ppm, 3 weeks, glass house 25° C.
Procedure, shortened: as §3

morning glory = test: Foliar spread test for upland field; format: in vivo, Ipomoea spps.; design: key: 0 = normal development, 5 = all killed (6 ranks vs. untreated); settings: foliar spray, 500 ppm, 3 weeks, glass house 25° C.
Procedure, shortened: as §3

Cassia obtusifolia = test: Foliar spread test for upland field; format: in vivo; design: key: 0 = normal development, 5 = all killed; settings: foliar spray, 500 ppm, 3 weeks, glass house 25° C.
Procedure, shortened: as §3

Xanthium pensylvanicum = test: Foliar spread test for upland field; format: in vivo; design: key: 0 = normal development, 5 = all killed; settings: foliar spray, 500 ppm, 3 weeks, glass house 25° C.
Procedure, shortened: as §3

With `FC(F)(F)c1cccc(Oc2cccc(-c3nc4cc(Cl)ccc4o3)n2)c1` [I-a-3, 6-(5-chlorobenzoxazol-2-yl)-2-(3-trifluoromethylphenoxy)pyridine] the “Effects Barnyardgrass” value (barnyard grass [1]) was 3, the “Effects Cyperus serotinus Rottb.” value (Cyperus serotinus Rottb.) was 0 and the “Effects Arrowhead” value (arrowhead) was 0. For the same compound, the “Effects Corn” value (corn) was 1, the “Effects Solgum” value (solgum [2]) was 1 and the “Effects Sugar beat” value (sugar beat) was 5. The “Effects Wheat” value (wheat) was 1, the “Effects Common Cocklebur” value [3] was 2 and the “Effects Sicklepod” value [4] was 5. For the same compound, the “Effects Large crabgrass” value (Large crabgrass [5]) was 5, the “Effects Barnyardgrass” value (barnyard grass [6]) was 4 and the “Effects Annual bluegrass” value (annual bluegrass [7]) was 5. For the same compound, the “Effects Common lambsquarters” value (common lambsquarters [8]) was 5, the “Effects Livid amaranth” value (livid amaranth) was 5 and the “Effects Sotton” value (cotton) was 4. The “Effects Solgum” value (solgum [9]) was 1, the “Effects Soybean” value (soybean) was 3 and the “Effects Large crabgrass” value (Large crabgrass [10]) was 2. The “Effects Barnyardgrass” value (barnyardgrjass) was 1, the “Effects Blackgrass” value (blackgrass) was 1 and the “Effects Annual bluegrass” value (annual bluegrass [11]) was 4. For the same compound, the “Effects Common lambsquarters” value (common lambsquarters [12]) was 5, the “Effects Velvetleaf” value (velvetleaf) was 4 and the “Effects Morning glory” value (morning glory) was 5. The “Effects Sicklepod” value (Cassia obtusifolia) was 4 and the “Effects Common Cocklebur” value (Xanthium pensylvanicum) was 4.

In the case of `Fc1ccc2nc(-c3cccc(Oc4cccc(C(F)(F)F)c4)n3)oc2c1` [I-a-6, 6-(6-fluorobenzoxazol-2-yl)-2-(3-trifluoromethylphenoxy)pyridine], the “Effects Barnyardgrass” value (barnyard grass [1]) is reported as 4, the “Effects Cyperus serotinus Rottb.” value (Cyperus serotinus Rottb.) is reported as 2 and the “Effects Arrowhead” value (arrowhead) is reported as 0. For the same compound, the “Effects Corn” value (corn) was 0, the “Effects Solgum” value (solgum [2]) was 0 and the “Effects Sugar beat” value (sugar beat) was 5. For the same compound, the “Effects Wheat” value (wheat) was 1, the “Effects Common Cocklebur” value [3] was 0 and the “Effects Sicklepod” value [4] was 1. For the same compound, the “Effects Large crabgrass” value (Large crabgrass [5]) was 5, the “Effects Barnyardgrass” value (barnyard grass [6]) was 5 and the “Effects Annual bluegrass” value (annual bluegrass [7]) was 5. The “Effects Common lambsquarters” value (common lambsquarters [8]) was 5, the “Effects Livid amaranth” value (livid amaranth) was 5 and the “Effects Sotton” value (cotton) was 3. The “Effects Solgum” value (solgum [9]) was 3, the “Effects Soybean” value (soybean) was 5 and the “Effects Large crabgrass” value (Large crabgrass [10]) was 5. For the same compound, the “Effects Barnyardgrass” value (barnyardgrjass) was 5, the “Effects Blackgrass” value (blackgrass) was 5 and the “Effects Annual bluegrass” value (annual bluegrass [11]) was 5. For the same compound, the “Effects Common lambsquarters” value (common lambsquarters [12]) was 5, the “Effects Velvetleaf” value (velvetleaf) was 5 and the “Effects Morning glory” value (morning glory) was 5. For the same compound, the “Effects Sicklepod” value (Cassia obtusifolia) was 5 and the “Effects Common Cocklebur” value (Xanthium pensylvanicum) was 5.

`Fc1ccc2nc(-c3cccc(Oc4ccc(F)c(C(F)(F)F)c4)n3)oc2c1` [I-a-7] was tested, and the “Effects Barnyardgrass” value (barnyard grass [1]) was 1, the “Effects Cyperus serotinus Rottb.” value (Cyperus serotinus Rottb.) was 0 and the “Effects Arrowhead” value (arrowhead) was 0. The “Effects Corn” value (corn) was 0, the “Effects Solgum” value (solgum [2]) was 0 and the “Effects Sugar beat” value (sugar beat) was 5. The “Effects Wheat” value (wheat) was 0, the “Effects Common Cocklebur” value [3] was 0 and the “Effects Sicklepod” value [4] was 3. For the same compound, the “Effects Large crabgrass” value (Large crabgrass [5]) was 5, the “Effects Barnyardgrass” value (barnyard grass [6]) was 4 and the “Effects Annual bluegrass” value (annual bluegrass [7]) was 5. The “Effects Common lambsquarters” value (common lambsquarters [8]) was 5, the “Effects Livid amaranth” value (livid amaranth) was 5 and the “Effects Sotton” value (cotton) was 3. For the same compound, the “Effects Solgum” value (solgum [9]) was 2, the “Effects Soybean” value (soybean) was 3 and the “Effects Large crabgrass” value (Large crabgrass [10]) was 3. The “Effects Barnyardgrass” value (barnyardgrjass) was 1, the “Effects Blackgrass” value (blackgrass) was 1 and the “Effects Annual bluegrass” value (annual bluegrass [11]) was 3. For the same compound, the “Effects Common lambsquarters” value (common lambsquarters [12]) was 4, the “Effects Velvetleaf” value (velvetleaf) was 3 and the “Effects Morning glory” value (morning glory) was 3. For the same compound, the “Effects Sicklepod” value (Cassia obtusifolia) was 3 and the “Effects Common Cocklebur” value (Xanthium pensylvanicum) was 4.
